Marks after values point to notes of the source that are not given here. Bridge positions count the residues as written; N and C are the ends. Square brackets hold non-standard residues; d marks the D form. Peptide text beside a SMILES is read from it. * marks the point of attachment. Palmitoyl = CCCCCCCCCCCCCCCC(=O)*; Dab = NCC[C@H](N)C(=O)O; Dap = NC[C@H](N)C(=O)O; AEEA = NCCOCCOCC(=O)O
How the values were obtained:
cGMP = test: Plasma cGMP after SC bolus of natriuretic peptides in CD-1 mice (pharmacodynamics, Table 3); format: in vivo; settings: SC bolus 1.0 mg/kg (≤0.45 μmol/kg), baseline 10 +/−8 pmol/ml, n = 3-5
Outline: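 Peptides given SC in sterile water; retro-orbital blood at 2 and 6 h post-dose (two bleeds per mouse), K2EDTA plasma. Plasma cGMP by commercial immunoassay kit; ANP, BNP or CNP plasma levels by peptide-specific ELISA.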

C57BL/6J mice = test: Survival in LPS induced ALI model (FIG. 2B); format: in vivo; settings: LPS 20 mg/kg IT; 0.3 mg/kg (0.1 μmol/kg) IT every 24 hours, 3 doses, survival to 72 hours
Procedure: FIGS. 2A-2B: Single and repeat administration of cationic alkyl modified C-type Natriuretic Peptides increases probability of survival in LPS induced Sepsis and ALI animal models. FIG. 2A) Sepsis induction: Male C57BL/6J mice (n=10 per group; 3 groups) were injected IP with LPS (15 mg/kg) and treated with various test articles, including cationic alkyl modified CNPs (SEQ ID NO: 31 and 29; 0.3 mg/kg (0.1 μmol/kg) SC). The control group received LPS treatment without any test article. The test articles were administered immediately after LPS administration (marked with vertical dotted lines). Survival was monitored every 2 hours from 8-56 hours, after which the surviving mice were euthanized under isoflurane anesthesia. […] Survival was monitored every 8 hours for 72 hours, after which the surviving mice were euthanized under isoflurane anesthesia. […]
Animal care and treatment: Male C57BL/6J mice (6 weeks-old) were purchased from Kyudo (Saga, Japan) and maintained under a 12-hour light/12-hour dark cycle with free access to water and standard mouse diet (MF diet, Oriental Yeast Co., Ltd. Tokyo, Japan). […] Survival was monitored every 2 hours from 8-56 hours, after which the mice were euthanized under isoflurane anesthesia. […] Survival was monitored every 8 hours for 72 hours, after which the mice were euthanized under isoflurane anesthesia. […]

[1] = tested on: inflammatory cytokines (MCP1, IL-6, TNFα) in BALF; test: LPS ALI model: inflammatory cytokines in BALF by ELISA (Table 4); format: in vivo, mice; settings: LPS 0.05 mg/kg IT; SEQ 0.3 mg/kg SC, Sivelestat 150 mg/kg IP; 24 hours
Procedure: Animal care and treatment: Male C57BL/6J mice (6 weeks-old) were purchased from Kyudo (Saga, Japan) and maintained under a 12-hour light/12-hour dark cycle with free access to water and standard mouse diet (MF diet, Oriental Yeast Co., Ltd. Tokyo, Japan). Drug administration: Mice were administered LPS (0.05 mg/kg IT; Sigma-Aldrich) followed by treatment with various test articles, including Sivelestat (150 mg/kg; Nipro, Osaka, Japan), an inhibitor of human neutrophil elastase, injected IP as a positive control, and cationic alkyl modified CNPs (SEQ ID NO: 31, 29, and 30; 0.3 mg/kg (0.1 μmol/kg) SC). The test articles were administered immediately after LPS injection. Additionally, a normal control (NC) group without LPS administration and a Control group receiving only LPS without any test article were included. After 24 hours, the mice were euthanized under isoflurane anesthesia and BALF was harvested. Biochemical analysis: ALI and ARDS are often characterized by increased levels of inflammatory cytokines, including Macrophage Chemoattractant Protein-1 (MCP1), Interleukin-6 (IL-6), and […] (TNFα), in BALF. Decreases in their concentration can indicate the resolution of ALI/ARDS. Concentration of each cytokine (MCP1, IL-6, and TNFα) was measured using an ELISA kit (R&D SYSTEMS, Minneapolis M N). […] Statistical analysis was based on Dunnett's test performed by using GraphPad. (n=5, 8, 8, 8, and 8; NC, Control, PC, SEQ ID NO: 31, SEQ ID NO: 29). *** P<0.001, ** P<0.01, * P<0.05 vs each corresponding Control group.

Which “Plasma concentration of cGMP, 2 hr” value (cGMP) does the source give for `CCCCCCCCCCCCCCCC(=O)NCCOCCOCC(=O)NCCOCCOCC(=O)NCCOCCOCC(=O)N[C@@H](CCN)C(=O)N[C@@H](CCN)C(=O)NCC(=O)N[C@@H](CC(C)C)C(=O)N[C@@H](CO)C(=O)N[C@@H](CCCCN)C(=O)NCC(=O)N[C@H]1CSSC[C@@H](C(=O)O)NC(=O)CNC(=O)[C@H](CC(C)C)NC(=O)CNC(=O)[C@H](CO)NC(=O)[C@H](CCC(N)=O)NC(=O)[C@H](CO)NC(=O)CNC(=O)[C@H]([C@@H](C)CC)NC(=O)[C@H](CCCNC(=N)N)NC(=O)[C@H](CC(=O)O)NC(=O)[C@H](CC(C)C)NC(=O)[C@H](CCCCN)NC(=O)[C@H](CC(C)C)NC(=O)CNC(=O)[C@H](Cc2ccccc2)NC1=O` [SEQ ID NO: 29] ({Palmitoyl-AEEA-AEEA-AEEA}-[Dab][Dab]GLSKGCFGLKLDRIGSQSGLGC-OH; disulfide 8-24; C-terminus assumed) here?
Its value is 157.31* pmol/mL.

And the “Plasma concentration of cGMP, 6 hr” value (cGMP)?
The value was 65.65* pmol/mL.

And the Survival (C57BL/6J mice)?
The Survival was “effective in improving survival”.

What about the “IL-6 in BALF” value [1] of the same compound?
Its value is 76 % Of Control.

What about the “MCP1 in BALF” value [1] of the same compound?
Its value is 69 % Of Control.

What about the “TNFα in BALF” value [1] of the same compound?
Its value is 39** % Of Control.

With `CCCCCCCCCCCCCCCC(=O)NCCOCCOCC(=O)NCCOCCOCC(=O)NCCOCCOCC(=O)N[C@@H](CN)C(=O)N[C@@H](CN)C(=O)NCC(=O)N[C@@H](CC(C)C)C(=O)N[C@@H](CO)C(=O)N[C@@H](CCCCN)C(=O)NCC(=O)N[C@H]1CSSC[C@@H](C(=O)O)NC(=O)CNC(=O)[C@H](CC(C)C)NC(=O)CNC(=O)[C@H](CO)NC(=O)[C@H](CCC(N)=O)NC(=O)[C@H](CO)NC(=O)CNC(=O)[C@H]([C@@H](C)CC)NC(=O)[C@H](CCCNC(=N)N)NC(=O)[C@H](CC(=O)O)NC(=O)[C@H](CC(C)C)NC(=O)[C@H](CCCCN)NC(=O)[C@H](CC(C)C)NC(=O)CNC(=O)[C@H](Cc2ccccc2)NC1=O` [SEQ ID NO: 31] ({Palmitoyl-AEEA-AEEA-AEEA}-[Dap][Dap]GLSKGCFGLKLDRIGSQSGLGC-OH; disulfide 8-24; C-terminus assumed) as the compound, how does the “Plasma concentration of cGMP, 2 hr” value (cGMP) read?
Its value is 98.34**** pmol/mL.

And the “Plasma concentration of cGMP, 6 hr” value (cGMP)?
Its value is 53.62*** pmol/mL.

And the Survival (C57BL/6J mice)?
Its Survival is “effective in improving survival”.

What about the “IL-6 in BALF” value [1] of the same compound?
Its value is 56* % Of Control.

And the “MCP1 in BALF” value [1]?
Its value is 50** % Of Control.

And the “TNFα in BALF” value [1]?
Its value is 28** % Of Control.
